Measured values as given in ChEMBL document CHEMBL4825766, “Structure Activity Relationships for a Series of Eticlopride-Based Dopamine D2/D3 Receptor Bitopic Ligands” (J Med Chem, 2021).

Columns and labels:
D(3) dopamine receptor = D(3) dopamine receptor (Homo sapiens, UniProt P35462)
D(2) dopamine receptor = D(2) dopamine receptor (Homo sapiens, UniProt P14416)
D(2) dopamine receptor, sequence (P14416 whole entry): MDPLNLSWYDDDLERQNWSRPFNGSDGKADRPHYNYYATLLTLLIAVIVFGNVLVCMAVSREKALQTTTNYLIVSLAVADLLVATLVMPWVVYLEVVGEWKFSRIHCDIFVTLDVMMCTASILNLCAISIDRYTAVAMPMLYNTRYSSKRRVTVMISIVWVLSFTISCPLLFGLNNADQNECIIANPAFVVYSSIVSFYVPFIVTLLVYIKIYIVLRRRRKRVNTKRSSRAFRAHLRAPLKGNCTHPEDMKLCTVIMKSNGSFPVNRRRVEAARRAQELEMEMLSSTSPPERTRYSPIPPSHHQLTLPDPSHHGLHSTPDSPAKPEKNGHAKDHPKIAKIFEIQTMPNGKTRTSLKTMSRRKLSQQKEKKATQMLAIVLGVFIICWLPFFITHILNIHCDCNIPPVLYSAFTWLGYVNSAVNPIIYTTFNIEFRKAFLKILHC

D(3) dopamine receptor, sequence (P35462 whole entry): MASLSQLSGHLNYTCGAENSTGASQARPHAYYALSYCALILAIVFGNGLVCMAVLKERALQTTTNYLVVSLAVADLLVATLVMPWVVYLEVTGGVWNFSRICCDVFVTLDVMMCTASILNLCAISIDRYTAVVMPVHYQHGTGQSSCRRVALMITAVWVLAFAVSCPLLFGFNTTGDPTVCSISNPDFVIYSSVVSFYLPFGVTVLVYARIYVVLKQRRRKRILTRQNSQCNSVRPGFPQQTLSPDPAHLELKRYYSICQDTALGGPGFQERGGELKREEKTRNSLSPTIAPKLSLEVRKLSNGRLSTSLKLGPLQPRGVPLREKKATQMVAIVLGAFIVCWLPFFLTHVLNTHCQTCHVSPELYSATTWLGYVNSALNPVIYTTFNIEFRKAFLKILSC

Ki (D(3) dopamine receptor) [nM]	Ki (D(2) dopamine receptor) [nM]	SMILES
0.815	1.9	CCc1cc(Cl)c(OC)c(C(=O)NC[C@@H]2C[C@@H](OCCCCO)CN2)c1O
6.97	25.3	CCc1cc(Cl)c(OC)c(C(=O)NC[C@@H]2CCCN2CCCCOc2ccc3c(c2)NC(=O)CC3)c1O
0.493	2.29	CCc1cc(Cl)c(OC)c(C(=O)NC[C@@H]2C[C@@H](OCCCCNC(=O)c3cc4ccccc4o3)CN2)c1O
15.4	27.6	CCc1cc(Cl)c(OC)c(C(=O)NC[C@@H]2CCCN2CCCCNC(=O)c2cc3ccccc3o2)c1O
1.01	7.24	CCc1cc(Cl)c(OC)c(C(=O)NC[C@@H]2C[C@@H](OCCCCOCc3ccccc3)CN2)c1O
28.7	205	CCc1cc(Cl)c(OC)c(C(=O)NC[C@@H]2CCCN2Cc2ccccc2)c1O
14.3	66.4	CCCN1CCC(CNC(=O)c2c(O)c(CC)cc(Cl)c2OC)C1 (centres undefined)
0.797	2.54	CCc1cc(Cl)c(OC)c(C(=O)NC[C@@H]2C[C@@H](OCCCCNC(=O)c3cc4ccccc4[nH]3)CN2)c1O
0.431	2.26	CCc1cc(Cl)c(OC)c(C(=O)NC[C@@H]2CCCN2)c1O
0.444	2.57	CCCN1C[C@H](OCCCCOc2ccc3c(c2)NC(=O)CC3)C[C@H]1CNC(=O)c1c(O)c(CC)cc(Cl)c1OC
20.4	162	CCc1cc(Cl)c(OC)c(C(=O)NC[C@@H]2CCCN2CCCc2ccccc2)c1O
0.281	0.688	CCCN1CCC[C@H]1CNC(=O)c1c(O)c(CC)cc(Cl)c1OC
426	2590	CCc1cc(Cl)c(OC)c(C(=O)NC[C@@H]2CCCN2Cc2ccccc2)c1OCc1ccccc1
2.63	7.42	CCc1cc(Cl)c(OC)c(C(=O)NC[C@@H]2C[C@@H](OCCCc3ccccc3)CN2)c1O
19.2	38.2	CCc1cc(Cl)c(OC)c(C(=O)NCC2CCN(CC)C2)c1O (centres undefined)
61.1	173	CCc1cc(Cl)c(OC)c(C(=O)NC[C@@H]2CCCN2CCCCNC(=O)c2cc3ccccc3[nH]2)c1O
0.436	1.77	CCc1cc(Cl)c(OC)c(C(=O)NC[C@@H]2C[C@@H](OCCCCOc3ccc4c(c3)NC(=O)CC4)CN2)c1O
100	217	CCc1cc(Cl)c(OC)c(C(=O)NCC2CCN(C)C2)c1O (centres undefined)
50.3	74.4	CCc1cc(Cl)c(OC)c(C(=O)NC[C@@H]2CCCN2CCc2c(C)nc3n(c2=O)CCCC3)c1O
	0.117	CCc1cc(Cl)c(OC)c(C(=O)NC[C@@H]2CCCN2CC)c1O [ETICLOPRIDE]
